The values below come from patent publication US20130344501A1, “METHODS FOR PRODUCING THREE-DIMENSIONAL PHYSIOLOGICALLY RELEVANT IMMUNE TISSUE SYSTEMS UNDER LOW FLUID SHEAR CONDITIONS” (priority 2010, published 2013).

One data set concerns U937 cells. Put plainly: Cell viability of U937 monocytes cultured alone (with or without microcarrier beads) after exposure to 3-oxo-C12 HSL, flow cytometry. The format is cell-based, human. The note with it: for Percentage viability, U937: U937 cells exposed alone, mean ± SD, N=3; for Percentage viability, U937 / Percentage viability, U937 + beads: 20 hour exposure; for Percentage viability, U937 + beads: U937 in the presence of microcarrier beads. The procedure: (§1) Assessment of live-, apoptotic-, and necrotic cell populations was performed with the annexin V-propidium iodide (PI) kit for flow cytometry analysis (ImmunoSource) according to the manufacturer's instructions.
(§2) Stained cell suspensions were analyzed with an EPICS XL flow cytometer (Beckman-Coulter) or a Cytomics FC 500 system (Beckman-Coulter), equipped with an argon laser and filters for adequate excitation of the chosen fluorophores. Forward scatter, side scatter, FITC-, PI and PE-Cy5 emissions were measured and a total of 10,000 cells were recorded for each sample. The respective cell populations were delimited to eliminate background signals originating from cell debris. To assess background fluorescent signals from the tested cell populations, non-stained samples were included.
After 72 hours of co-cultivation, aggregates containing 2×10^6 cells were seeded into 6-well plates containing fresh medium (5 ml total volume). Subsequently, aggregates were spiked with 5, 10 or 100 μM 3-oxo-C12 HSL (Sigma-Aldrich) (starting from a 20 mM stock solution in DMSO, stored at −20° C.). Equal volumes of DMSO, containing the respective amounts of 3-oxo-C12 HSL, were added to each well (25 μl) and a solvent control (25 μl DMSO) was included in each experiment. Six-well plates were placed at 37° C. in a 5% CO2 environment and incubated for 20 hours. For exposure assays of monocytes to 3-oxo-C12 HSL, 2×10^6 U937 cells/well were transferred in 6-well plates. To assess the influence of 3-oxo-C12 HSL on monocytes cultured on microcarrier beads, collagen I-coated beads were added to the cells at the same concentration as for seeding three-dimensional cultures (1 bead per 2500 cells). Subsequently, monocyte cultures (with or without microcarrier beads) were spiked with 3-oxo-C12 HSL (see above). A solvent control was included. […] Cell viability was assayed with trypan blue (0.4%) (Sigma) and/or with the annexin V-PI kit (ImmunoSource) (see above). […] FIG. 9B are examples of the three-dimensional A549-U937 co-culture model exposed to 100 μM 3-oxo-C12 HSL and to the solvent control DMSO. The presented cell population is gated for CD45 positive cells and thus only includes monocytes/macrophages. For FIGS. 9A-B, “I” represents the percentage of dead cells, while “H” is the viable cell population. Consequently, cell viability was further assessed based on the shift in forward scatter signal (see Table 1).
For orientation: A flow cytometer gives signals particle by particle.

For data set [1], the system named is A549 cells in A549-U937 3-D co-culture. The experiment in a line: Viability of A549 epithelial cells in the three-dimensional A549-U937 co-culture after exposure to 3-oxo-C12 HSL. Type of data set: cell-based, human. The note with it: A549 co-cultured three-dimensionally with U937, 20 hour exposure. The procedure:
A549 three-dimensional aggregates were grown as described above and after 9 days of three-dimensional A549 cultivation, undifferentiated U937 monocytes were added to the HARV as follows. three-dimensional A549 cells were counted by trypsinization of an aggregate sample and U937 cells (grown in T75 flasks) were added in a 1:1 ratio to the three-dimensional A549 culture. A549 and U937 cells were co-cultured in the HARV at 20 rpm for 72 h. After addition of the monocytes, culture medium was changed after 48 hours of co-cultivation where after medium was replenished every 24 hours.
as §1, §2
After 72 hours of co-cultivation, aggregates containing 2×10^6 cells were seeded into 6-well plates containing fresh medium (5 ml total volume). Subsequently, aggregates were spiked with 5, 10 or 100 μM 3-oxo-C12 HSL (Sigma-Aldrich) (starting from a 20 mM stock solution in DMSO, stored at −20° C.). Equal volumes of DMSO, containing the respective amounts of 3-oxo-C12 HSL, were added to each well (25 μl) and a solvent control (25 μl DMSO) was included in each experiment. Six-well plates were placed at 37° C. in a 5% CO2 environment and incubated for 20 hours. […] Consequently, cell viability was further assessed based on the shift in forward scatter signal (see Table 1).

Take `CCCCCCCCCC(=O)CC(=O)N[C@H]1CCOC1=O` [3-oxo-C12 HSL, N-(3-oxododecanoyl)-Lhomoserine lactone]: the “loss of viability of pure cultures of U937 cells” value in the data set with U937 cells (100 μM, after 2 hours of exposure) is recorded as “started to show significant loss of viability”. For the same compound, the “viability of pure cultures of U937 cells” value in the data set with U937 cells (100 μM, after 5 hours of exposure) amounted to 50%. Also, the “Percentage viability, U937” value in the data set on U937 cells (5 μM) amounted to 82.8 ± 0.2%; in the data set on U937 cells (10 μM), 75.6 ± 0.6%. In addition, the entries for the “Percentage viability, U937 + beads” value in the data set with U937 cells (5 μM), in the data set with U937 cells (10 μM) and in the data set on U937 cells (100 μM) were 89.1 ± 1.4%, 90.9 ± 0.4% and 5.3 ± 0.4%, respectively. The “monocyte cell viability” value in the data set on U937 cells (lower concentrations, 5 μM and 10 μM) is “did not induce significant differences”. Further, the “Percentage viability, A549-U937 3-D, A549” value in data set [1] (5 μM) is listed as 90.3 ± 0.01%; in data set [1] (10 μM), 92.6 ± 0.00%; in data set [1] (100 μM), 84.3 ± 0.00%.
